One assay has as its target T1, FGFR3 (Homo sapiens, UniProt P22607).
T1 construct: Enzymes (from Upstate) were prepared at 2× final concentration in 1× kinase assay buffer; purchased Upstate
The assay is described as follows: FGFR3 in vitro kinase inhibitory activity assay (TRF). Format: biochemical. The method, then: Enzymes (from Upstate) were prepared at 2× final concentration in 1× kinase assay buffer (as described below). Enzymes were then incubated with test compounds, biotinylated Flt3 substrate (biotin—DNEYFYV) (Cell Signalling Technology Inc.) and ATP. The reaction was allowed to proceed for 3 hours (FGFR3) or 2.5 hrs (PDGFR-beta) at room temperature on a plate shaker at 900 rpm before being stopped with 20 μl of 35 mM EDTA, pH 8 (FGFR3) or 55 mM EDTA, pH 8 (PDGFR-beta). Twenty μl of 5× detection mix (50 mM HEPES pH 7.5, 0.1% BSA, 2 nM Eu-anti-pY (PY20) (PerkinElmer) 15 nM SA-XL665 (Cisbio) for FGFR3 and 50 mM HEPES, pH 7.5, 0.5 M KF, 0.1% BSA, 11.34 nM Eu-anti-pY (PT66) (PerkinEimer), 94 nM SA-XL665 (Cisbio) for PDGFR-beta) was then added to each well and the plate sealed and incubated at room temperature for one hour on a plate shaker at 900 rpm. The plate was then read on a Packard Fusion plate reader in TRF mode.
Kinase Assay buffers were:
A: 50 mM HEPES pH 7.5, 6 mM MnCl2, 1 mM DTT, 0.1% TritonX-100

A further assay deals with LP-1 cell line. The assay is described as follows: Cell-based pERK ELISA in LP-1 multiple myeloma cells. Conditions: Homo sapiens. Here is the method:
LP-1 or JIM-1 multiple myeloma cells were seeded in 96 well plates at 1×10^6 cells/ml in 200 μl per well in serum free media. HUVEC cells were seeded at 2.5×10^5 cells/ml and allowed to recover for 24 h prior to transfer to serum free media. Cells were incubated for 16 h at 37° C. prior to the addition of a test compound for 30 minutes. Test compounds were administered at a 0.1% final DMSO concentration. Following this 30 minute incubation a FGF-1/Heparin (FGF-1 at 100 ng/ml final and Heparin at 100 ug/ml) mixture or VEGF^165 ([…]) was added to each of the wells for a further 5 minutes. The media was removed and 50 ul ERK ELISA lysis buffer (R and D Systems DuoSet ELISA for pERK and Total ERK #DYC-1940E, DYC-1018E) added. ELISA plates and standards were prepared according to the standard DuoSet protocols and the relative amounts of pERK to total ERK in each sample calculated according to the standard curve.
In particular, compounds of the invention were tested against the LP-1 cell line (DSMZ no.: ACC 41) derived from human multiple myeloma.

Where [1] appears, read: given as a bound, read-out: IC50 in the FGFR3 assay.
Where [2] appears, read: LP-1 cell line, given as a bound, read-out: IC50 in LP-1 pERK ELISA.
[3] abbreviates: in vitro kinase assay, 8 μM ATP, read-out: FGFR3 IC50.
Where [4] appears, read: LP-1 cells, FGF-1/heparin stimulation, pERK relative to total ERK, read-out: LP-1 pERK ELISA.

Each structure is given as a SMILES string. Structures can show the parent of a compound that is named as a salt. Where two headings read alike, the source gives them in different places.

T1 sequence (P22607 23-806): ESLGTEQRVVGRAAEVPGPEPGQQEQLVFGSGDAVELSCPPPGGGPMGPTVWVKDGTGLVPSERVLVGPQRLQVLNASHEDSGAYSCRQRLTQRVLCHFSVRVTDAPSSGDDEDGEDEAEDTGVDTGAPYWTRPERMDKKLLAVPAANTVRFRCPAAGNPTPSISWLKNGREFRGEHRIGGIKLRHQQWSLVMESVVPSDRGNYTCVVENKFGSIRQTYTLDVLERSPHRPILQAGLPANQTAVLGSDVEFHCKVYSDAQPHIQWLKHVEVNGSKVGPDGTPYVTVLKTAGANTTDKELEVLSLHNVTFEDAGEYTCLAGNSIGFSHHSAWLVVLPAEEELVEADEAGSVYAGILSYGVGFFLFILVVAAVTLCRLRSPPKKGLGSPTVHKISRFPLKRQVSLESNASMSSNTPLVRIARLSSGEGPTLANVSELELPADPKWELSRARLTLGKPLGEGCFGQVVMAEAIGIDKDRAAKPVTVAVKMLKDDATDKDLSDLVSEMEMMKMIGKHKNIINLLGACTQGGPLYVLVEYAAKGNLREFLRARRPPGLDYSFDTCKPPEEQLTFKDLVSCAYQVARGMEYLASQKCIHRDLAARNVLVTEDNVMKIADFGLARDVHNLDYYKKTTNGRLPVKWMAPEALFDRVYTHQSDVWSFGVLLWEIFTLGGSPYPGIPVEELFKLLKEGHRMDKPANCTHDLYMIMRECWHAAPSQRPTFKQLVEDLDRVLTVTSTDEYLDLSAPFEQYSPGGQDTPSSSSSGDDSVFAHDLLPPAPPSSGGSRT

Consider `Fc1ccc(-c2ccn3c(-c4cccc(Nc5cnccn5)c4)cnc3c2)cc1` [Example 1, {3-[7-(4-Fluoro-phenyl)-imidazo[1,2-a]pyridin-3-yl]-phenyl}-pyrazin-2-yl-amine], for which the IC50 on FGFR3 (setting [1]) was less than 1000 nM. `c1cc(CN2CCOCC2)cc(-c2ccn3c(-c4cccc(Nc5nncs5)c4)cnc3c2)c1` [Example 2]: the IC50 on FGFR3 (setting [1]) and in the assay on LP-1 cell line (setting [2]) was less than 1000 nM in each case.

Turning to `Cc1nnc(Nc2cccc(-c3cnc4cc(-c5cccc(CN6CCOCC6)c5)ccn34)c2)s1` [Example 3], the IC50 on FGFR3 (setting [1]) and in the assay on LP-1 cell line (setting [2]) was less than 1000 nM throughout. For `CN1CCN(Cc2ccc(-c3ccn4c(-c5cccc(Nc6cnn[nH]6)c5)cnc4c3)cc2)CC1` [Example 4, (3-{7-[4-(4-Methyl-piperazin-1-ylmethyl)-phenyl]-imidazo[1,2-a]pyridin-3-yl}-phenyl)-(3H-[1,2,3]triazol-4-yl)-amine formate salt], the IC50 at FGFR3 (setting [1]) and in the assay on LP-1 cell line (setting [2]) was less than 1000 nM in each case. Take `Fc1ccc(-c2ccn3c(-c4cccc(Nc5ccncc5)c4)cnc3c2)cc1` [Example 6, {3-[7-(4-Fluoro-phenyl)-imidazo[1,2-a]pyridin-3-yl]-phenyl}-pyridin-4-yl-amine formate salt]: on FGFR3 (setting [1]), the IC50 is less than 1000 nM. Take `Fc1ccc(-c2ccn3c(-c4cccc(Nc5nncs5)c4)cnc3c2)cc1` [Example 7, {3-[7-(4-Fluoro-phenyl)-imidazo[1,2-a]pyridin-3-yl]-phenyl}-[1,3,4]thiadiazol-2-yl-amine]: the IC50 at FGFR3 (setting [1]) is less than 1000 nM; on FGFR3 (setting [3]), 2.2 nM; in the assay on LP-1 cell line (setting [2]), less than 1000 nM; in the assay on LP-1 cell line (setting [4]) it was 69 nM. With `c1ccc(Nc2cccc(-c3cnc4cc(-c5cccc(CN6CCOCC6)c5)ccn34)c2)cc1` [Example 8, {3-[7-(3-Morpholin-4-ylmethyl-phenyl)-imidazo[1,2-a]pyridin-3-yl]-phenyl}-phenyl-amine], the IC50 at FGFR3 (setting [1]) is less than 1000 nM. `CN1CCN(Cc2cccc(-c3ccn4c(-c5cccc(Nc6nncs6)c5)cnc4c3)c2)CC1` [Example 9, (3-{7-[3-(4-Methyl-piperazin-1-ylmethyl)-phenyl]-imidzao[1,2-a]pyridin-3-yl}-phenyl)-[1,3,4]thiadiazol-2-yl-amine formate salt]: the IC50 on FGFR3 (setting [1]) and in the assay with LP-1 cell line (setting [2]) was less than 1000 nM throughout. For the molecule `Fc1ccc(-c2cnc3c(-c4cccc(Nc5nncs5)c4)cnn3c2)cc1` [Example 10, {3-[6-(4-Fluoro-phenyl)-pyrazolo[1,5-a]pyrimidin-3-yl]-phenyl}-[1,3,4]thiadiazol-2-yl-amine], the IC50 on FGFR3 (setting [1]) was less than 1000 nM; on FGFR3 (setting [3]), 4.82 nM; in the assay on LP-1 cell line (setting [2]), less than 1000 nM; in the assay with LP-1 cell line (setting [4]), 39 nM. In the case of `c1cc(Nc2nncs2)cc(-c2cnc3cc(N4CCOCC4)ccn23)c1` [Example 19, [3-(7-Morpholin-4-yl-imidazo[1,2-a]pyridin-3-yl)-phenyl]-[1,3,4]thiadiazol-2-yl-amine], the IC50 at FGFR3 (setting [1]) is less than 1000 nM. Consider `CCS(=O)(=O)N1CCN(c2ccn3c(-c4cccc(Nc5nncs5)c4)cnc3c2)CC1` [Example 21, {3-[7-(4-Ethanesulfonyl-piperazin-1-yl)-imidazo[1,2-a]pyridin-3-yl]-phenyl}-[1,3,4]thiadiazol-2-yl-amine Hydrochloride], for which the IC50 at FGFR3 (setting [1]) was less than 1000 nM. Same read-out and setting: the figure for `O=C(c1cccc(-c2ccn3c(-c4cccc(Nc5nncs5)c4)cnc3c2)c1)N1CCOCC1` [Example 22, Morpholin-4-yl-(3-{3-[3-([1,3,4]thiadiazol-2-ylamino)-phenyl]-imidazo[1,2-a]pyridin-7-yl}-phenyl)-methanone Hydrochloride] is less than 1000 nM; for `Fc1ccc(-c2ccc3c(c2)ncn3-c2cccc(Nc3nncs3)c2)cc1` [Example 23, {3-[5-(4-Fluoro-phenyl)-benzoimidazol-1-yl]-phenyl}-[1,3,4]thiadiazol-2-yl-amine] it is less than 1000 nM. Take `Nc1nc(Nc2cccc(-c3cnc4cc(-c5ccc(F)cc5)ccn34)c2)n[nH]1` [Example 27, N*3*-(3-[7-(4-Fluoro-phenyl)-imidazo[1,2-a]pyridin-3-yl]-phenyl}-1H-[1,2,4]triazole-3,5-diamine]: the IC50 was less than 1000 nM at FGFR3 (setting [1]) and 130 nM at FGFR3 (setting [3]). For the molecule `Fc1ccc(-c2ccn3c(-c4cccc(Nc5nnco5)c4)cnc3c2)cc1` [Example 29, {3-[7-(4-Fluoro-phenyl)-imidazo[1,2-a]pyridin-3-yl]phenyl}-[1,3,4]oxadiazol-2-yl-amine], the IC50 on FGFR3 (setting [1]) is less than 1000 nM; at FGFR3 (setting [3]), 11 nM. For `Fc1ccc(-c2cnc3c(-c4cc(Nc5nncs5)ccn4)cnn3c2)cc1` [Example 31, {2-[6-(4-Fluoro-phenyl)-pyrazolo[1,5-a]pyrimidin-3-yl]-pyridin-4-yl}-[1,3,4]thiadiazol-2-yl-amine], in that order: less than 1000 nM and 350 nM.

In the case of `c1cc(Nc2nncs2)cc(-c2cnc3cc(-c4ccnc(OC5CCOCC5)c4)ccn23)c1` [Example 33], on FGFR3 (setting [1]), the IC50 is less than 1000 nM. Take `Cn1ccnc1Nc1cccc(-c2cnc3cc(-c4ccc(F)cc4)ccn23)c1` [Example 34, {3-[7-(4-Fluoro-phenyl)-imidazol[1,2-a]pyridin-3-yl]-phenyl}-(1-methyl-1H-imidazol-2-yl)-amine Hydrochloride]: the IC50 is less than 1000 nM on FGFR3 (setting [1]) and 480 nM at FGFR3 (setting [3]). On to `OCc1cccc(-c2ccn3c(-c4cccc(Nc5nncs5)c4)cnc3c2)c1` [Example 35, (3-{3-[3-([1,3,4]Thiadiazol-2-ylamino)-phenyl]-imidazo[1,2-a]pyridin-7-yl}-phenyl)-methanol], for which, at FGFR3 (setting [1]), the IC50 is less than 1000 nM. On the same count and under the same terms, under `CCOC(=O)N1CCN(c2ccn3c(-c4cccc(Nc5nncs5)c4)cnc3c2)CC1` [Example 36, 4-{3-[3-([1,3,4]Thiadiazol-2-ylamino)-phenyl]-imidazo[1,2-a]pyridin-7-yl}-piperazine-1-carboxylic acid ethyl ester] stands less than 1000 nM. Take `Nc1ccc(-c2ccn3c(-c4cccc(Nc5nncs5)c4)cnc3c2)cn1` [Example 37, 5-{3-[3-([1,3,4]Thiadiazol-2-ylamino)-phenyl]-imidazo[1,2-a]pyridin-7-yl}-pyridin-2-ylamine Hydrochloride]: the IC50 at FGFR3 (setting [1]) was less than 1000 nM; on FGFR3 (setting [3]), 2.55 nM. In the case of `CC(=O)N1CCN(c2ccn3c(-c4cccc(Nc5nncs5)c4)cnc3c2)CC1` [Example 38, 1-(4-{3-[3-([1,3,4]Thiadiazol-2-ylamino)-phenyl]-imidazo[1,2-a]pyridin-7-yl}-piperazin-1-yl)-ethanone], at FGFR3 (setting [1]), the IC50 is less than 1000 nM. Consider `Fc1ccc(-c2ccn3c(-c4cccc(Nc5ncns5)c4)cnc3c2)cc1` [Example 39, {3-[7-(4-Fluoro-phenyl)-imidazo[1,2-a]pyridin-3-yl]phenyl}-[1,2,4]thiadiazol-5-yl-amine], for which the IC50 on FGFR3 (setting [1]) was less than 1000 nM; on FGFR3 (setting [3]) it was 115 nM. In the case of `CS(=O)(=O)NCc1cccc(-c2ccn3c(-c4cccc(Nc5nncs5)c4)cnc3c2)c1` [Example 40, N-(3-{3-[3-([1,3,4]Thiadiazol-2-ylamino)-phenyl]-imidazo[1,2-a]pyridin-7-yl}-benzyl)-methanesulfonamide], the IC50 on FGFR3 (setting [1]) is less than 1000 nM. The same measure, in the same setting: under `Cc1ccn2c(-c3cccc(Nc4nncs4)c3)cnc2c1` [Example 41, [3-(7-Methyl-imidazo[1,2-a]pyridin-3-yl)phenyl]-[1,3,4]thiadiazol-2-yl-amine Hydrochloride] stands less than 1000 nM; under `Cn1cc(-c2ccn3c(-c4cccc(NCc5ccccc5)c4)cnc3c2)cn1` [Example 42, Benzyl-{3-[7-(1-methyl-1H-pyrazol-4-yl)-imidazo[1,2-a]pyridin-3-yl]phenyl}-amine], less than 1000 nM; under `Clc1ccn2c(-c3cccc(NCc4ccccc4)c3)cnc2c1` [the product of Procedure F8, Benzyl-[3-(7-chloro-imidazo[1,2-a]pyridin-3-yl)-phenyl]-amine], less than 1000 nM. Still for that read-out and setting: the figure for `Clc1ccn2c(-c3cccc(Nc4cnn[nH]4)c3)cnc2c1` [the product of Procedure G1, [3-(7-Chloro-imidazo[1,2-a]pyridin-3-yl)-phenyl]-(3H-[1,2,3]triazol-4-yl)-amine] is less than 1000 nM.

The record behind these values is patent US8513276B2, “Imidazo[1,2-a]pyridine compounds for use in treating cancer” (Astex Therapeutics Limited, priority 2006, dated 2013).
